The structures appear in SMILES notation.

For the assay, the target named is HydG (So HydG, WT HydG) (Shewanella oneidensis, UniProt Q8EAH9). Description: X-band CW EPR of the [4Fe-4S]RS cluster. It counts as binding. The note with it: pH 7.5, 10 K; [4Fe-4S]RS cluster site.

`C[S+](CC[C@H](N)C(=O)O)C[C@H]1O[C@@H](n2cnc3c(N)ncnc32)[C@H](O)[C@@H]1O` (stereo partly drawn) [SAM, S-adenosyl-L-methionine]: the “X-band CW EPR of the [4Fe-4S]RS cluster” value was “interaction between the HydG [4Fe–4S]RS cluster and the substrates, Tyr or SAM”.

Values taken from PMC4780679 (Inorganic chemistry, 2015).
